pEC50: −log10 of the molar value. Read-outs that look alike come from different tables or passages of the source.
Assays:
[1] = target: T1, alpha2B receptor (Homo sapiens, UniProt P18089); assay: RSAT assay, alpha 2B; assay type: cell-based; details: for (rel. efficacy) Alpha 2B / EC50: RSAT; for (rel. efficacy) Alpha 2B: ratio of maximal effect to standard full agonist brimonidine (UK14304); for EC50: NIH-3T3 cells, NA = not active, read-out: EC50 (nM) Alpha 2B
T1 construct: expressed in transfected cells; host or cells: NIH-3T3
T1 sequence (P18089 1-450): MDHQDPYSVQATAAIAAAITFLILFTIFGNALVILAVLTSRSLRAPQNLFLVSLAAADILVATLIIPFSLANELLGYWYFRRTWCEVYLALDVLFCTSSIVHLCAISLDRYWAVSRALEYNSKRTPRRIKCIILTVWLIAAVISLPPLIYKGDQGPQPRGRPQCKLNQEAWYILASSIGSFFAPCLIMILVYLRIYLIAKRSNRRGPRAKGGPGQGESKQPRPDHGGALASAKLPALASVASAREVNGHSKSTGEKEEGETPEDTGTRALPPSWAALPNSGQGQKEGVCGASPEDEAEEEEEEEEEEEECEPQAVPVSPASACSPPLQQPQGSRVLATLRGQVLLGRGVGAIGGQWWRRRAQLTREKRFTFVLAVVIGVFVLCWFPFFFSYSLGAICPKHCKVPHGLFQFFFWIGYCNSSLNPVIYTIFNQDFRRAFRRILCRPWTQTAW
Description: (§1) Selected presently described compounds were synthesized and tested for alpha adrenergic activity using the Receptor Selection and Amplification Technology (RSAT) assay. Cells expressing each of the alpha-2-adrenergic receptors alone were incubated with various compounds and a receptor-mediated growth response was measured. The compound's activity is expressed as its relative efficacy compared to a standard full agonist.
(§2) The RSAT assay measures a receptor-mediated loss of contact inhibition that results in selective proliferation of receptor-containing cells in a mixed population of confluent cells. The increase in cell number is assessed with an appropriate transfected marker gene such as β-galactosidase, the activity of which can be easily measured in a 96-well format. Receptors that activate the G protein, Gq, elicit this response. Alpha2 receptors, which normally couple to Gi, activate the RSAT response when coexpressed with a hybrid Gq protein that has a Gi receptor recognition domain, called Gq/i5.
(§3) NIH-3T3 cells are plated at a density of 2×10^6 cells in 15 cm dishes and maintained in Dulbecco's modified Eagle's medium supplemented with 10% calf serum. One day later, cells are cotransfected by calcium phosphate precipitation with mammalian expression plasmids encoding p-SV-β-galactosidase (5-10 μg), receptor (1-2 μg) and G protein (1-2 μg). 40 μg salmon sperm DNA may also be included in the transfection mixture. Fresh media is added on the following day and 1-2 days later, cells are harvested and frozen in 50 assay aliquots. Cells are thawed and […] added to […] aliquots of various concentrations of drugs in triplicate in 96-well dishes. Incubations continue 72-96 hr at 37° C. After washing with phosphatebuffered saline, β-galactosidase enzyme activity is determined by adding 200 μl of the chromogenic substrate (consisting of 3.5 mM o-nitrophenyl-β-D-galactopyranoside and 0.5% nonidet P-40 in phosphate buffered saline), incubating overnight at 30° C. and measuring optical density at 420 nm. The absorbance is a measure of enzyme activity, which depends on cell number and reflects a receptor-mediated cell proliferation. The EC50 and maximal effect of each drug at each alpha2 receptor is determined. The efficacy or intrinsic activity is calculated as a ratio of the maximal effect of the drug to the maximal effect of a standard full agonist for each receptor subtype. Brimonidine, also called UK14304, is used as the standard agonist for the alpha2A, alpha2B, and alpha2C receptors.
(§4) The compounds activity is expressed as its relative efficacy compared to a standard full agonist.

[2] = target: T2, alpha2C receptor (Homo sapiens, UniProt P18825); assay: RSAT assay, alpha 2C; assay type: cell-based; details: for (rel. efficacy) Alpha 2C / EC50: RSAT; for (rel. efficacy) Alpha 2C: ratio of maximal effect to standard full agonist brimonidine (UK14304); for EC50: NIH-3T3 cells, NA = not active, read-out: EC50 (nM) Alpha 2C
T2 construct: expressed in transfected cells; host or cells: NIH-3T3
T2 sequence (P18825 1-462): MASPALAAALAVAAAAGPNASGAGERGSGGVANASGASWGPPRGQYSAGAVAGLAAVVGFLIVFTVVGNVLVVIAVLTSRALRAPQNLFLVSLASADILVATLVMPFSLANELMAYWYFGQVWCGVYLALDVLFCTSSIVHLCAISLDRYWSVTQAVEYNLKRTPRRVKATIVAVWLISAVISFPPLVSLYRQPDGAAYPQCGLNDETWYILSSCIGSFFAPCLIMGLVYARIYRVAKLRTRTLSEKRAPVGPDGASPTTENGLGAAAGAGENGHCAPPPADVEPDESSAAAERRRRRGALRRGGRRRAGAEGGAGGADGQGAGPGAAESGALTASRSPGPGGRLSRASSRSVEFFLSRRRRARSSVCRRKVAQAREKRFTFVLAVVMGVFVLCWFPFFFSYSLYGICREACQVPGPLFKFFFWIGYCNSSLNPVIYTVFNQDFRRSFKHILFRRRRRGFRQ
Description: as §1, §2, §3, §4

SMILES	pEC50 [1]	(rel. efficacy) Alpha 2B [1]	pEC50 [2]	(rel. efficacy) Alpha 2C [2]	EC50 [2]	EC50 [1]
Fc1c(Cl)cccc1CNC1=NCCS1	6.97	1.01	6.27	0.7	–	–
Fc1c(CNC2=NCCS2)cccc1C(F)(F)F	6.74	0.99	5.84	0.73	–	–
Clc1cccc(CNC2=NCCS2)c1	7.38	0.99	–	0.48	504 nM	–
Brc1cccc(CNC2=NCCS2)c1	7.12	0.84	6.34	0.5	–	–
Fc1ccc(Br)c(CNC2=NCCS2)c1	7.14	0.97	6.34	0.67	–	–
Fc1ccc(Br)cc1CNC1=NCCS1	–	0.85	–	0.64	2060 nM	280 nM
Clc1cccc(CNC2=NCCS2)c1Cl	7.55	0.94	6.60	0.68	–	–
FC(F)(F)c1cccc(CNC2=NCCS2)c1Cl	–	1.08	–	0.46	854 nM	101 nM
Cc1cc(Br)c(F)c(CNC2=NCCS2)c1	–	1.04	–	0.62	803 nM	168 nM
Cc1cc(Cl)cc(CNC2=NCCS2)c1F	6.45	0.96	5.90	0.51	–	–
Clc1ccccc1CNC1=NCCS1	7.30	0.85	–	0.66	699 nM	–
Clc1ccc(Br)cc1CNC1=NCCS1	–	0.9	–	0.56	1330 nM	296 nM
Brc1ccccc1CNC1=NCCO1	8.30	1.09	7.07	0.85	–	–
Clc1cccc(CNC2=NCCO2)c1Cl	8.30	1.05	7.04	0.91	–	–
Clc1ccccc1CNC1=NCCO1	8.48	1.02	7.38	0.83	–	–
Clc1ccc(Br)cc1CNC1=NCCO1	7.70	0.98	7.09	0.71	–	–

SMILES	pEC50 [1]	(rel. efficacy) Alpha 2B [1]	pEC50 [2]	(rel. efficacy) Alpha 2C [2]	EC50 [2]	EC50 [1]
Fc1ccc(Br)c(CNC2=NCCO2)c1	8.40	1.05	7.54	0.71	–	–
Brc1cccc(CNC2=NCCO2)c1	7.92	1.0	7.08	0.59	–	–
Fc1ccc(Br)cc1CNC1=NCCO1	7.74	0.89	–	0.63	186 nM	–
FC(F)(F)c1cccc(CNC2=NCCO2)c1Cl	8.30	0.96	–	0.81	189 nM	–
Fc1ccc(Cl)c(F)c1CNC1=NCCO1	7.24	0.93	–	0.52	356 nM	–
Cc1c(Cl)cccc1CNC1=NCCS1	7.40	0.99	6.40	0.72	–	–
Clc1cccc(CNC2=NCCS2)c1Br	7.40	0.85	–	0.68	303 nM	–
Cc1cccc(CNC2=NCCO2)c1C	8.70	1.09	7.96	0.83	–	–
FC(F)Oc1ccccc1CNC1=NCCO1	7.47	0.83	7.89	0.74	–	–
FC(F)(F)c1ccccc1CNC1=NCCO1	7.51	0.97	7.68	0.8	–	–
FC(F)Oc1cccc(CNC2=NCCO2)c1	–	0.6	7.22	0.49	–	217 nM
Fc1cccc(CNC2=NCCO2)c1	7.41	0.82	7.77	0.59	–	–
COc1ccccc1CNC1=NCCS1 [drawing 16]	–	–	5.81	0.74	–	–
COc1ccccc1CNC1=NCCO1 [drawing 17]	7.87	1.09	–	0.53	181 nM	–
Fc1c(Cl)cccc1CNC1=NCCO1 [drawing 19]	8.00	1.09	7.66	0.85	–	–
